pIC50: −log10 of the molar value. In brackets after ≈: the same amount, converted by molar mass. Where two headings read alike, the source gives them in different places.
Experiments:
B. anthracis NADS = B. anthracis NADS (Bacillus anthracis, UniProt Q81RP3); assay: biochemical
[1] = system: Bacillus anthracis Sterne; assay: microbe, parasite or virus in culture; format: cell-based; conditions: read-out: B.a. MIC

Chain of B. anthracis NADS (Q81RP3 whole entry, looked up): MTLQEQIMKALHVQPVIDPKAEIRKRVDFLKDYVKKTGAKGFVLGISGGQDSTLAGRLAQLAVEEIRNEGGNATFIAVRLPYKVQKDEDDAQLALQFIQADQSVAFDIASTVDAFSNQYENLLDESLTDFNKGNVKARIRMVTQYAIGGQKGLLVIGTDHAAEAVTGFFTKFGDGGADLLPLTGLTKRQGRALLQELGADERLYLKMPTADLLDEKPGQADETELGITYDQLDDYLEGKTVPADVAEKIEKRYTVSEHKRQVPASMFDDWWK

Structure (SMILES): O=[N+]([O-])c1ccc(-c2cnc(N/N=C/c3cccc([N+](=O)[O-])c3)nc2)cc1 [Compound 5591]
- pIC50 (B. anthracis NADS): 3.80

Structure (SMILES): CCc1ccc(S(=O)(=O)Nc2c([N+](=O)[O-])ccc3ccccc23)cc1 [Compound 5599]
- MIC [1]: 3.75 µM (≈ 1.34 µg/mL)

Structure (SMILES): O=C(Cn1cc(/C=C/c2[nH]c(=O)[nH]c(=O)c2[N+](=O)[O-])c2ccccc21)Nc1ccc(F)cc1 [Compound 5615]
- pIC50 (B. anthracis NADS): 4.26
- pIC50 (B. anthracis NADS; read-out: NADs IC50): 4.26

Structure (SMILES): NC(=O)c1ccc(/N=C/c2cc([N+](=O)[O-])ccc2Cl)cc1 [Compound 5679]
- pIC50 (B. anthracis NADS): 3.58

Structure (SMILES): O=C(Nc1cccc(/N=C/c2cc([N+](=O)[O-])ccc2O)c1)c1ccc(Cl)cc1Cl [Compound 5691]
- pIC50 (B. anthracis NADS): 3.97

Structure (SMILES): COc1ccc(NC(=O)Nc2cccc(NC(=O)Nc3ccc(OC)cc3)c2F)cc1 [Compound 5707]
- pIC50 (B. anthracis NADS): 3.60

Structure (SMILES): N/C(=N\OC(=O)c1ccc(Cl)c(Cl)c1)c1cccc(CSc2ccccn2)c1 [Compound 5775]
- pIC50 (B. anthracis NADS): 3.54
